Data: patent publication US4945114A, “Therapeutic agents containing enantiomers of propafenone” (priority 1987, dated 1990)
Structures can show the parent of a compound that is named as a salt.

Key:
[1] = system: aconitine-induced arrhythmia; assay: Antiarrhythmic action in aconitine-induced arrhythmia of the rat; type: in vivo; conditions: iv, 5 min, read-out: Antiarrhythmic effect on aconitine-induced arrhythmias ED 50%
Procedure: 2. Determination of the antiarrhythmic action in aconitine-induced arrhythmia of the rat
The experimental animals used were male Sprague-Dawley rats weighing from 180 to 300 g. Anaesthesia was effected intraperitoneally with 100 mg/kg of thiobutabarbital. To induce arrhythmias, aconitine was infused at a rate of 5 μg per kg per minute. The test substances were administered intravenously 2 minutes before the beginning of the aconitine infusion. The parameter measured was the duration of the aconitine infusion when the first arrhythmias (loss of P, ventricular extrasystoles and tachycardias) appeared in the ECG of the animals. In untreated animals, the aconitine-induced arrhythmia occurred after 3.3±0.11 minutes (n=120). The ED 50% was determined from the linear relationship between log dose (mg/kg) of the test substances and the relative prolongation of aconitine infusion duration (Δ%).

[2] = target: T1, β2-receptor subtype (rat lung membranes, 25% of β1, 75% of β2) (Rattus norvegicus, UniProt P10608); assay: Inhibition of specific 3H-dihydroalprenolol binding in rat lung membranes; conditions: 1 nM 3H-dihydroalprenolol, confidence limits in brackets, read-out: Lung Ki (competition constant)
T1 construct: rat lung membranes; from tissue; host or cells: rat lung membranes
T1 sequence (P10608 whole entry): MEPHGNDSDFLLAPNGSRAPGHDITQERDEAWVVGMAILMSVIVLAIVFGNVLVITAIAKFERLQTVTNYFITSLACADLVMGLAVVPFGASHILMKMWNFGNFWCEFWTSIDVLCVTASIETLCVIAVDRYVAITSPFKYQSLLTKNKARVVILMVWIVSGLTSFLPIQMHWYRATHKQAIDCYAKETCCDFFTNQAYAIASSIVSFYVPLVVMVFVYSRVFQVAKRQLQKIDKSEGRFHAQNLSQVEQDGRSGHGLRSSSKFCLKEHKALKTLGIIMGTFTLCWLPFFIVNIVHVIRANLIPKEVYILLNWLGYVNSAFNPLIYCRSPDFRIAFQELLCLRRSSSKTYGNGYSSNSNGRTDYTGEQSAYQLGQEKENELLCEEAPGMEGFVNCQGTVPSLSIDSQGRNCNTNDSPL
Procedure: Two experiments were carried out with three batches.

CCCNC[C@@H](O)COc1ccccc1C(=O)CCc1ccccc1 [(R)-propafenone, (R)-propafenone . HCl]
ED50 [1]: 0.801 mg/kg | Ki [2]: 257 nM

CCCNCC(O)COc1ccccc1C(=O)CCc1ccccc1 (racemic) [(R,S)-propafenone, 2'-(2-hydroxy-3-propylaminopropoxy)-3-phenylpropiophenone, reference compound]
ED50 [1]: 0.724 mg/kg | Ki [2]: 32 nM

CCCNC[C@H](O)COc1ccccc1C(=O)CCc1ccccc1 [(S)-propafenone, (S)-propafenone . HCl]
ED50 [1]: 0.676 mg/kg | Ki [2]: 14 nM
